Each block holds one compound with its values, some of them ahead of it.
Key:
myosin ATPase = target: T1, myosin ATPase (Bos taurus, UniProt Q9BE39); details: biological evaluation in Application No. WO2022105852; cited from earlier work
T1 construct: 0.07 μM myosin motor protein SI fragment; purchased Cytoskeleton CS-MYS03 (myosin S1); AD99 (actin)

[1] = Toxicokinetic evaluation of 14 days of repeated intragastric administration to SD rats; assay type: in vivo
Experimental: SD rats were used as the test animals. After intragastric administration of the test compounds to the SD rats, the concentrations of the original forms of the compounds in the plasma and the administration solutions were measured by the LC/MS/MS method at different time points.
Twenty-four SD rats, with an equal number of males and females, were evenly divided into 6 groups, each consisting of 4 rats with an equal number of males and females. The rats were provided by Vital River Laboratory Animal Technology Co., Ltd.
A certain amount of compound MYK-461 was weighed out, and 0.5% MC was added to prepare a colorless clear solution.
Compound MYK-461 was administered at doses of 0.5 mg/kg, 1.5 mg/kg, and 3 mg/kg, each with a volume of 10 mL/kg.
0.2-mL blood samples were collected from the orbit at 0.5 h, 1.0 h, 2.0 h, 4.0 h, 8.0 h, and 24.0 h after administration on day 1, and 0.2-mL blood samples were collected from the orbit before administration and at 0.5 h, 1.0 h, 2.0 h, 4.0 h, 8.0 h, and 24.0 h after administration on day 7 and day 14. The blood samples were placed into EDTA-K2 anticoagulation tubes and centrifuged at 10,000 rpm for 1 min (4° C.), and the plasma was isolated within 1 h and stored at −20° C. before analysis. The procedure starting from the blood collection to the centrifugation was performed under ice-bath conditions. Two hours after administration, food was provided. […]

[2] = Long-term/accelerated stability study (6 months); assay type: physicochemical; details: for physical and chemical stability (conclusion): 25° C. with 60% RH and 40° C. with 75% RH
[3] = DVS (dynamic vapor sorption) hygroscopicity; assay type: physicochemical; details: for hygroscopic weight gain: DVS
Experimental: DVS refers to dynamic vapor sorption: The measurement was performed using SMS DVS Advantage; at 25° C., the humidity was changed as follows: 50%-95%-0%-95%-50%, in steps of 10% (5% for the last step) (specific humidity ranges are shown in corresponding patterns, and those listed here were used in most cases); the criterion was dm/dt being not greater than 0.002%.

[4] = Influencing factor stability study (30 days, open flasks); assay type: physicochemical; details: for physical and chemical stability (conclusion): light exposure, 40° C. and 60° C., 75% RH and 92.5% RH
[5] = normal storage conditions, 60% RH
[6] = Light exposure (4500 Lux), 5 days
[7] = Light exposure (4500 Lux), 10 days
[8] = Light exposure (4500 Lux), 30 days

T1 sequence (Q9BE39 85-778 limits assumed): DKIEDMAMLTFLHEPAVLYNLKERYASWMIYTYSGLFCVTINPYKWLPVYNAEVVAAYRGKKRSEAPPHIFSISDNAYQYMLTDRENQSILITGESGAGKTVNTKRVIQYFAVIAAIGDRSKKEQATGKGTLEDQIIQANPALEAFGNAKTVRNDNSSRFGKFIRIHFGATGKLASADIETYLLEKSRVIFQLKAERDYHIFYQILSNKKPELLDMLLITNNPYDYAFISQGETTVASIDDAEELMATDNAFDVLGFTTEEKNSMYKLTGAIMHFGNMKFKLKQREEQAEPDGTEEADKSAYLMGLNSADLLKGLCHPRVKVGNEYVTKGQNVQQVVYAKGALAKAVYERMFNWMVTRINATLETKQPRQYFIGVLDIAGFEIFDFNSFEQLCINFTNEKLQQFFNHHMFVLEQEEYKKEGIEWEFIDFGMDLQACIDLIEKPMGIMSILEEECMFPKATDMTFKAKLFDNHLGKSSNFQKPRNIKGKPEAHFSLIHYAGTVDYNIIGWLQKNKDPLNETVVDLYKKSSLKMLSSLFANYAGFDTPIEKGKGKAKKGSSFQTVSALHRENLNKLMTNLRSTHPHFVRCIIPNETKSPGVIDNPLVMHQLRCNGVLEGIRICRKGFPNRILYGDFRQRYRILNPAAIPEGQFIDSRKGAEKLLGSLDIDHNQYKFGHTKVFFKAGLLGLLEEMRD
T1 sequence (P85100 whole entry partner, the tested form may be a part): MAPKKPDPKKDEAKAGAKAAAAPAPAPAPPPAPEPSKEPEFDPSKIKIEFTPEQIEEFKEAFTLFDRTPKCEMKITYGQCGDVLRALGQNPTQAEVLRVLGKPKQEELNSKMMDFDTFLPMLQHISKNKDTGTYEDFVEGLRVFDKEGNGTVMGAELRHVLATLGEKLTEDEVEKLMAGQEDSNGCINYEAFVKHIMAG

Compound: Cc1ccc(F)c([C@H](C)Nc2nc(=O)n(C3CCOCC3)c(=O)[nH]2)c1 [(S)-6-((1-(2-Fluoro-5-methylphenyl)ethyl)amino)-3-(tetrahydro-2H-pyran-4-yl)-1,3,5-triazine-2,4(1H,3H)-dione]
inhibitory effect on myosin ATPase (myosin ATPase): very good inhibitory effect | accumulation in the SD rats [1]: did not cause significant accumulation

Compound: CC(C)n1c(=O)cc(N[C@@H](C)c2ccccc2)[nH]c1=O [MYK-461, reference compound]
accumulation in the SD rats [1]: caused significant accumulation

Crystal form ([2]; 25° C./60% RH, 1 month): No change | Purity % ([2]; 25° C./60% RH, 1 month): 99.7% | Crystal form ([2]; 25° C./60% RH, 2 months): No change | Purity % ([2]; 25° C./60% RH, 2 months): 99.7% | Crystal form ([2]; 25° C./60% RH, 3 months): No change | Purity % ([2]; 25° C./60% RH, 3 months): 99.7% | Crystal form ([2]; 25° C./60% RH, 6 months): No change | Purity % ([2]; 25° C./60% RH, 6 months): 99.7% | Crystal form ([2]; 40° C./75% RH, 1 month): No change | Purity % ([2]; 40° C./75% RH, 1 month): 99.7% | Crystal form ([2]; 40° C./75% RH, 2 months): No change | Purity % ([2]; 40° C./75% RH, 2 months): 99.7% | Crystal form ([2]; 40° C./75% RH, 3 months): No change | Purity % ([2]; 40° C./75% RH, 3 months): 99.7% | Crystal form ([2]; 40° C./75% RH, 6 months): No change | Purity % ([2]; 40° C./75% RH, 6 months): 99.8% | Purity % ([2]; Initial): 99.7% | hygroscopic weight gain ([3]; accelerated conditions, 70% RH): about 0.15% | hygroscopic weight gain ([3]; extreme conditions, 90% RH): about 0.24% | hygroscopic weight gain [3, 5]: about 0.12% | crystal form after DVS testing [3]: did not change | Color and state ([4]; 40° C., 5 days): Off-white solid | Crystal form ([4]; 40° C., 5 days): No change | Purity % ([4]; 40° C., 5 days): 99.7% | Color and state ([4]; 40° C., 10 days): Off-white solid | Crystal form ([4]; 40° C., 10 days): No change | Purity % ([4]; 40° C., 10 days): 99.7% | Color and state ([4]; 40° C., 30 days): Off-white solid | Crystal form ([4]; 40° C., 30 days): No change | Purity % ([4]; 40° C., 30 days): 99.7% | Color and state ([4]; 60° C., 5 days): Off-white solid | Crystal form ([4]; 60° C., 5 days): No change | Purity % ([4]; 60° C., 5 days): 99.7% | Color and state ([4]; 60° C., 10 days): Off-white solid | Crystal form ([4]; 60° C., 10 days): No change | Purity % ([4]; 60° C., 10 days): 99.7% | Color and state ([4]; 60° C., 30 days): Off-white solid | Crystal form ([4]; 60° C., 30 days): No change | Purity % ([4]; 60° C., 30 days): 99.7% | Color and state ([4]; 75% RH, 5 days): Off-white solid | Crystal form ([4]; 75% RH, 5 days): No change | Purity % ([4]; 75% RH, 5 days): 99.7% | Color and state ([4]; 75% RH, 10 days): Off-white solid | Crystal form ([4]; 75% RH, 10 days): No change | Purity % ([4]; 75% RH, 10 days): 99.7% | Color and state ([4]; 75% RH, 30 days): Off-white solid | Crystal form ([4]; 75% RH, 30 days): No change | Purity % ([4]; 75% RH, 30 days): 99.7% | Color and state ([4]; 92.5% RH, 5 days): Off-white solid | Crystal form ([4]; 92.5% RH, 5 days): No change | Purity % ([4]; 92.5% RH, 5 days): 99.7% | Color and state ([4]; 92.5% RH, 10 days): Off-white solid | Crystal form ([4]; 92.5% RH, 10 days): No change | Purity % ([4]; 92.5% RH, 10 days): 99.7% | Color and state ([4]; 92.5% RH, 30 days): Off-white solid | Crystal form ([4]; 92.5% RH, 30 days): No change | Purity % ([4]; 92.5% RH, 30 days): 99.7% | Color and state ([4]; Initial, 0 days): Off-white solid | Purity % ([4]; Initial, 0 days): 99.7% | Color and state [4, 6]: Off-white solid | Crystal form [4, 6]: No change | Purity % [4, 6]: 99.7% | Color and state [4, 7]: Off-white solid | Crystal form [4, 7]: No change | Purity % [4, 7]: 99.7% | Color and state [4, 8]: Off-white solid | Crystal form [4, 8]: No change | Purity % [4, 8]: 99.7%
Compound: Cc1ccc(F)c([C@H](C)Nc2nc(=O)n(C3CCOCC3)c(=O)[nH]2)c1 [crystal form A, (S)-6-((1-(2-fluoro-5-methylphenyl)ethyl)amino)-3-(tetrahydro-2H-pyran-4-yl)-1,3,5-triazine-2,4(1H,3H)-dione]
physical and chemical stability (conclusion) ([2]; 6 months): both good physical stability and good chemical stability | physical and chemical stability (conclusion) ([4]; 30 days): both good physical stability and good chemical stability

Crystal form ([2]; 25° C./60% RH, 1 month): No change | Purity % ([2]; 25° C./60% RH, 1 month): 99.8% | Crystal form ([2]; 25° C./60% RH, 2 months): No change | Purity % ([2]; 25° C./60% RH, 2 months): 99.8% | Crystal form ([2]; 25° C./60% RH, 3 months): No change | Purity % ([2]; 25° C./60% RH, 3 months): 99.9% | Crystal form ([2]; 25° C./60% RH, 6 months): No change | Purity % ([2]; 25° C./60% RH, 6 months): 99.9% | Crystal form ([2]; 40° C./75% RH, 1 month): No change | Purity % ([2]; 40° C./75% RH, 1 month): 99.9% | Crystal form ([2]; 40° C./75% RH, 2 months): No change | Purity % ([2]; 40° C./75% RH, 2 months): 99.9% | Crystal form ([2]; 40° C./75% RH, 3 months): No change | Purity % ([2]; 40° C./75% RH, 3 months): 99.9% | Crystal form ([2]; 40° C./75% RH, 6 months): No change | Purity % ([2]; 40° C./75% RH, 6 months): 99.9% | Purity % ([2]; Initial): 99.9% | hygroscopic weight gain ([3]; accelerated conditions, 70% RH): about 0.298% | hygroscopic weight gain ([3]; extreme conditions, 90% RH): about 0.418% | hygroscopic weight gain [3, 5]: about 0.242% | crystal form after DVS testing [3]: did not change | Color and state ([4]; 40° C., 5 days): Off-white solid | Crystal form ([4]; 40° C., 5 days): No change | Purity % ([4]; 40° C., 5 days): 99.8% | Color and state ([4]; 40° C., 10 days): Off-white solid | Crystal form ([4]; 40° C., 10 days): No change | Purity % ([4]; 40° C., 10 days): 99.9% | Color and state ([4]; 40° C., 30 days): Off-white solid | Crystal form ([4]; 40° C., 30 days): No change | Purity % ([4]; 40° C., 30 days): 99.9% | Color and state ([4]; 60° C., 5 days): Off-white solid | Crystal form ([4]; 60° C., 5 days): No change | Purity % ([4]; 60° C., 5 days): 99.9% | Color and state ([4]; 60° C., 10 days): Off-white solid | Crystal form ([4]; 60° C., 10 days): No change | Purity % ([4]; 60° C., 10 days): 99.9% | Color and state ([4]; 60° C., 30 days): Off-white solid | Crystal form ([4]; 60° C., 30 days): No change | Purity % ([4]; 60° C., 30 days): 99.9% | Color and state ([4]; 75% RH, 5 days): Off-white solid | Crystal form ([4]; 75% RH, 5 days): No change | Purity % ([4]; 75% RH, 5 days): 99.8% | Color and state ([4]; 75% RH, 10 days): Off-white solid | Crystal form ([4]; 75% RH, 10 days): No change | Purity % ([4]; 75% RH, 10 days): 99.8% | Color and state ([4]; 75% RH, 30 days): Off-white solid | Crystal form ([4]; 75% RH, 30 days): No change | Purity % ([4]; 75% RH, 30 days): 99.8% | Color and state ([4]; 92.5% RH, 5 days): Off-white solid | Crystal form ([4]; 92.5% RH, 5 days): No change | Purity % ([4]; 92.5% RH, 5 days): 99.9% | Color and state ([4]; 92.5% RH, 10 days): Off-white solid | Crystal form ([4]; 92.5% RH, 10 days): No change | Purity % ([4]; 92.5% RH, 10 days): 99.9% | Color and state ([4]; 92.5% RH, 30 days): Off-white solid | Crystal form ([4]; 92.5% RH, 30 days): No change | Purity % ([4]; 92.5% RH, 30 days): 99.9% | Color and state ([4]; Initial, 0 days): Off-white solid | Purity % ([4]; Initial, 0 days): 99.9% | Color and state [4, 6]: Off-white solid | Crystal form [4, 6]: No change | Purity % [4, 6]: 99.9% | Color and state [4, 7]: Off-white solid | Crystal form [4, 7]: No change | Purity % [4, 7]: 99.9% | Color and state [4, 8]: Off-white solid | Crystal form [4, 8]: No change | Purity % [4, 8]: 99.9%
Compound: Cc1ccc(F)c([C@H](C)Nc2nc(=O)n(C3CCOCC3)c(=O)[nH]2)c1 [crystal form B, (S)-6-((1-(2-fluoro-5-methylphenyl)ethyl)amino)-3-(tetrahydro-2H-pyran-4-yl)-1,3,5-triazine-2,4(1H,3H)-dione]
physical and chemical stability (conclusion) ([2]; 6 months): both good physical stability and good chemical stability | physical and chemical stability (conclusion) ([4]; 30 days): both good physical stability and good chemical stability

Reference: patent publication US20250326743A1, “CRYSTAL FORMS OF TRIAZINE DIONE DERIVATIVE AND PREPARATION METHOD THEREFOR” (Jiangsu Hengrui Pharmaceuticals Co., Ltd., priority 2022, published 2025)
